One series relates to Tagia sp. The conditions noted are these: chronic/long-term; duration: 56 days.
The subject of the next series is Folsomia candida. Particulars: chronic/long-term; duration: 28 days; reproduction.
In another series the test system is Rattus norvegicus. The conditions noted are these: for LD50: acute, gavage, mortality.
The subject of another series is Oryctolagus sp. Particulars: reproduction developmental; clinical signs.
Another series concerns Pimephales promelas. Particulars: chronic/long-term; duration: 35 days; reproduction.
Another series has as its system Oncorhynchus mykiss. Particulars: acute; duration: 96 hours; mortality.
A further series concerns Colinus virginianus. Particulars: oral.
The subject of another series is Apis mellifera. The conditions noted are these: acute, duration: 48 hours, mortality.
A further series has as its system Daphnia magna. Particulars: chronic/long-term; duration: 21 days; reproduction.
A further series deals with Lepomis macrochirus. The conditions noted are these: acute; duration: 96 hours; mortality.
The next series deals with Landoltia sp. The conditions noted are these: acute; duration: 7 days; other.

Structures are written as SMILES.

A word on the NOAEL: it is the highest dose or exposure tested at which no adverse effect was seen. A word on the LC50: it is the concentration that kills 50% of the test population.

In the case of `CCCOc1nn(C(N)=O)c(=O)n1C`, the NOEC with Tagia sp. was found to be 316 mg/kg; in the series with Folsomia candida, 10 mg/kg.
In the series with Rattus norvegicus (oral), `COC(=O)c1ccccc1S(=O)(=O)NC(=O)n1nc(OCC(C)O)n(C)c1=O` (stereo not given) [Propoxycarbazone-2-hydroxypropoxy] showed an LD50 greater than 5000 mg/kg-day. Further, in the series on Rattus norvegicus (short-term, duration: 28 days, oral, diet), the NOAEL was greater than 880 mg/kg-day.
As to `CCCOc1nn(C(=O)[N-]S(=O)(=O)c2ccccc2C(=O)OC)c(=O)n1C.[Na+]` [Propoxycarbazone-sodium], the NOAEL was found to be 100 mg/kg-day in the series with Oryctolagus sp. and 43 mg/kg-day in the series with Rattus norvegicus (chronic, duration: 2 years, clinical chemistry). The NOEC worked out at 5.83 mg/L in the series on Pimephales promelas, 1.25 mg/kg with Tagia sp., 13.8 mg/L with Daphnia magna and 500 mg/kg in the series on Folsomia candida. Moreover, in the series on Oncorhynchus mykiss, the LC50 was greater than 77.2 µg/mL. For the same molecule, the LD50 in the series on Colinus virginianus (acute, mortality) was greater than 2000 mg/kg-day; in the series with Apis mellifera (dermal) it was greater than 100 µg/piece; in the series with Apis mellifera (oral, unspecified), greater than 110 µg/piece; in the series with Rattus norvegicus (oral), greater than 5000 mg/kg-day. Besides, the NOEL in the series on Colinus virginianus (reproduction developmental, duration: 25 weeks, diet, reproduction) stood at 45 mg/kg-day.
In the case of `O=C1NS(=O)(=O)c2cccc(O)c21` [4-hydroxy-1H-1,2-benzisothiazole-1,1,3(2H)-trione], the NOEC in the series on Tagia sp. is 5 mg/kg; with Folsomia candida, 10 mg/kg.
For `CCCOc1nn(C(=O)NS(=O)(=O)c2ccccc2C(=O)O)c(=O)n1C`, in the series with Lepomis macrochirus, the median lethal concentration (LC50) is greater than 87.7 µg/mL. In the series on Landoltia sp., the NOEC came out at 14.2 mg/L.

Source of the values: EPA's ToxValDB 9.5 (doi:10.2903/j.efsa.2016.4612).
